Measurements: patent US9394297B2, “Amides as pim inhibitors” (AMGEN INC., priority 2012, dated 2016)
Read-outs that look alike come from different tables or passages of the source.

Columns and labels:
[1] = test system: KMS-12-BM cell lines; assay: KMS12 #2 flow cytometry assay (phospho-BAD Ser112); format: cell-based; details: Homo sapiens, 110 min, read-out: KMS-12-Flow IC50 IP
[2] = target: Pim-1 (Homo sapiens (Human), UniProt P11309); assay: Pim-Mn enzyme assay (HTRF, 384-well), Pim-1; format: biochemical; details: read-out: Pim-1-Mn IC50 IP
[3] = target: Pim-2 (Homo sapiens (Human), UniProt Q9P1W9); assay: Pim-Mn enzyme assay (HTRF, 384-well), Pim-2; format: biochemical; details: read-out: Pim-2-Mn IC50 IP
[4] = KMS-12-BM cells, pBAD Ser112 by flow cytometry, 110 min with compound
[5] = Pim-1 enzyme 5 pM, ATP 1.5 μM, BAD (S112) 0.5 μM, HTRF, 22-point curve
[6] = Pim-2 enzyme 0.5 pM, ATP 1.5 μM, BAD (S112) 0.5 μM, HTRF, 22-point curve

Chain of Pim-1 (P11309 whole entry): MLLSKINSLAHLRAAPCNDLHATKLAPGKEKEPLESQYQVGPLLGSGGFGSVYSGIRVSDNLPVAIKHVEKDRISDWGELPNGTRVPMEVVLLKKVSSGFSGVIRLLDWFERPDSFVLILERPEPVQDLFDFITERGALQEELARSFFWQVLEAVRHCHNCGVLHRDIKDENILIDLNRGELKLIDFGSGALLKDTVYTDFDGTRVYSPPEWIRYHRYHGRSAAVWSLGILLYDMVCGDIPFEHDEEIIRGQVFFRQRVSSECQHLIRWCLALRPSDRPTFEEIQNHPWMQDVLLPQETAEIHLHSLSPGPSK
Chain of Pim-2 (Q9P1W9 whole entry): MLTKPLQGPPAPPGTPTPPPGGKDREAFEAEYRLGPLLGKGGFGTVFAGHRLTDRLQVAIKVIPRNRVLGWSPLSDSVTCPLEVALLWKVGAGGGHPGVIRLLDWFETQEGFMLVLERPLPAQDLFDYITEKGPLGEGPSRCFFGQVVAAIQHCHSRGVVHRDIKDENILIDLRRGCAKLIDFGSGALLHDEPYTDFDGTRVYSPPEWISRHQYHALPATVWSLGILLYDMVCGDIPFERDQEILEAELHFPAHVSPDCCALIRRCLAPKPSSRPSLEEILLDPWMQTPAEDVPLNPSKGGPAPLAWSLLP

SMILES	IC50 [1, 4] [nM]	IC50 [2, 5] [nM]	IC50 [3, 6] [nM]	IC50 ([1]; KMS-12-BM) [nM]	IC50 [2] [nM]	IC50 [3] [nM]
Cc1nc2cccc(-c3cc4c([nH]3)C(CO)NC4=O)c2nc1NC1(C)CC1 (stereo not drawn) [Example 360, 6-(hydroxymethyl)-2-(2-methyl-3-((1-methylcyclopropyl)amino)quinoxalin-5-yl)-5,6-dihydropyrrolo[3,4-b]pyrrol-4 (1H)-one]	88.4	1.42	1.37	–	–	–
Cc1nc2cccc(-c3cc4c([nH]3)[C@@H](C)NC4=O)c2nc1NC1(C)CC1 [Example 333, (6R)-6-methyl-2-(2-methyl-3-((1-methylcyclopropyl)amino)-5-quinoxalinyl)-5,6-dihydropyrrolo[3,4-b]pyrrol-4(1H)-one]	8.42	0.185	0.183	–	–	–
Cc1nc2cccc(-c3cc4c([nH]3)[C@@H](C)NC4=O)c2nc1O[C@@H](C)C(F)(F)F [Example 452, (6R)-6-methyl-2-(2-methyl-3-((1S)-2,2,2-trifluoro-1-methylethoxy)-5-quinoxalinyl)-5,6-dihydropyrrolo[3,4-b]pyrrol-4(1H)-one]	3190	21.6	32.5	–	–	–
Cc1nc2cccc(-c3cc4c([nH]3)CNC4=O)c2nc1NCC(F)(F)F [Example 301, 2-(2-methyl-3-((2,2,2-trifluoroethyl)amino)-5-quinoxalinyl)-5,6-dihydropyrrolo[3,4-b]pyrrol-4(1H)-one]	341	1.25	1.91	–	–	–
CN(c1ncc2cccc(-c3cc4c([nH]3)CCNC4=O)c2n1)C(C)(C)C [Example 377, 2-(2-(tert-butyl(methyl)amino)quinazolin-8-yl)-6,7-dihydro-1H-pyrrolo[3,2-c]pyridin-4(5H)-one]	1630	2.43	3.32	–	–	–
CC(C)(C)Nc1nc2c(-c3cc4c([nH]3)CCNC4=O)cccc2nc1/C=N/O [Example 308, (E)-3-(tert-butylamino)-5-(4-oxo-4,5,6,7-tetrahydro-1H-pyrrolo[3,2-c]pyridin-2-yl)quinoxaline-2-carbaldehyde oxime]	177	1.05	1.27	–	–	–
Cc1nc2cccc(-c3cc4c([nH]3)C(COCc3ccccc3)NC4=O)c2nc1NC(C)(C)C (racemic) [Example 468, (6R)-6-((benzyloxy)methyl)-2-(3-(tert-butylamino)-2-methyl-5-quinoxalinyl)-5,6-dihydropyrrolo[3,4-b]pyrrol-4(1H)-one and (6S)-6-((benzyloxy)methyl)-2-(3-(tert-butylamino)-2-methyl-5-quinoxalinyl)-5,6-dihydropyrrolo[3,4-b]pyrrol-4(1H)-one]	3390	5.4	7.94	–	–	–
Cc1nc2ccc(F)c(-c3cc4c([nH]3)[C@@H](C)NC4=O)c2nc1NC1(C)CC1 [Example 379, (R)-2-(6-fluoro-2-methyl-3-((1-methylcyclopropyl)amino)quinoxalin-5-yl)-6-methyl-5,6-dihydropyrrolo[3,4-b]pyrrol-4(1H)-one]	11.3	0.0376	0.0484	–	–	–
Cc1nc2cccc(-c3cc4c([nH]3)[C@H](CO)NC4=O)c2nc1NC1CC1 [Example 367, (R)-2-(3-(cyclopropylamino)-2-methylquinoxalin-5-yl)-6-(hydroxymethyl)-5,6-dihydropyrrolo[3,4-b]pyrrol-4(1H)-one]	429	3.81	3.68	–	–	–
Cc1nc2cccc(-c3cc4c([nH]3)C3(CC3)NC4=O)c2nc1NC1CC1 [Example 325, 2′-(3-(cyclopropylamino)-2-methyl-5-quinoxalinyl)-1′H-spiro[cyclopropane-1,6′-pyrrolo[3,4-b]pyrrol]-4′(5′H)-one]	–	–	0.242	68.8	0.293	–
C[C@H]1NC(=O)c2cc(-c3cccc4c(=O)[nH]c(NC(C)(C)C)nc34)[nH]c21 [Example 408, 2-(tert-butylamino)-8-((6R)-6-methyl-4-oxo-1,4,5,6-tetrahydropyrrolo[3,4-b]pyrrol-2-yl)-4(3H)-quinazolinone]	47	0.1	0.24	–	–	–
Cc1nc2cccc(-c3cc4c([nH]3)[C@H](CO)NC4=O)c2nc1NC1(C)CC1 [Example 362, (R)-6-(hydroxymethyl)-2-(2-methyl-3-((1-methylcyclopropyl)amino)quinoxalin-5-yl)-5,6-dihydropyrrolo[3,4-b]pyrrol-4 (1H)-one]	251	1.73	1.82	–	–	–
Cc1nc2cccc(-c3[nH]c4c(c3C)C(=O)NCC4)c2nc1NC(C)(C)C [Example 350, 2-(3-(tert-butylamino)-2-methyl-5-quinoxalinyl)-3-methyl-1,5,6,7-tetrahydro-4H-pyrrolo[3,2-c]pyridin-4-one]	1510	2.31	3.38	–	–	–
Cc1nc2ccc(F)c(-c3cc4c([nH]3)C3(CC3)NC4=O)c2nc1NC1CC1 [Example 283, 2′-(3-(cyclopropylamino)-6-fluoro-2-methylquinoxalin-5-yl)-1′H-spiro[cyclopropane-1,6′-pyrrolo[3,4-b]pyrrol]-4′(5′H)-one]	75.2	0.303	0.278	–	–	–
Cc1nc2cccc(-c3cc4c([nH]3)[C@@H](C)NC4=O)c2nc1NCC(F)(F)F [Example 294, (6R)-6-methyl-2-(2-methyl-3-((2,2,2-trifluoroethyl)amino)-5-quinoxalinyl)-5,6-dihydropyrrolo[3,4-b]pyrrol-4(1H)-one]	165	1.23	2.23	–	–	–
Cc1nc2ccc(F)c(-c3cc4c([nH]3)[C@H]([C@H](C)O)NC4=O)c2nc1NC1CC1 [Example 354, (R)-2-(3-(cyclopropylamino)-6-fluoro-2-methylquinoxalin-5-yl)-6-((S)-1-hydroxyethyl)-5,6-dihydropyrrolo[3,4-b]pyrrol-4(1H)-one]	2310	7.08	16.4	–	–	–
Cc1nc2cccc(-c3cc4c([nH]3)CCNC4=O)c2nc1-c1ccccc1Cl [Example 427, 2-(3-(2-Chlorophenyl)-2-methylquinoxalin-5-yl)-6,7-dihydro-1H-pyrrolo[3,2-c]pyridin-4(5H)-one]	> 40000	23.3	82	–	–	–
Cc1nc2cccc(-c3cc4c([nH]3)CCNC4=O)c2nc1NCC(F)(F)F [Example 336, 2-(2-methyl-3-((2,2,2-trifluoroethyl)amino)-5-quinoxalinyl)-1,5,6,7-tetrahydro-4H-pyrrolo[3,2-c]pyridin-4-one]	145	2.82	1.32	–	–	–
COCCOCCn1c(NC(C)(C)C)nc2c(-c3cc4c([nH]3)[C@@H](C)NC4=O)cccc2c1=O [Example 474, 2-(tert-butylamino)-3-(2-(2-methoxyethoxyl)ethyl)-8-((6R)-6-methyl-4-oxo-1,4,5,6-tetrahydropyrrolo[3,4-b]pyrrol-2-yl)-4(3H)-quinazolinone]	121	1.34	0.917	–	–	–
COCCN(CCOC)CCC(C)(C)Nc1nc2c(-c3cc4c([nH]3)CNC4=O)cccc2c(=O)n1C [Example 473, 2-((4-(bis(2-methoxyethyl)amino)-2-methylbutan-2-yl)amino)-3-methyl-8-(4-oxo-1,4,5,6-tetrahydropyrrolo[3,4-b]pyrrol-2-yl)quinazolin-4(3H)-one]	12400	11.4	36	–	–	–
Cc1nc2ccc(F)c(-c3cc4c([nH]3)C3(CC3)NC4=O)c2nc1NC1(C)CC1 [Example 378, 2′-(6-fluoro-2-methyl-3-((1-methylcyclopropyl)amino)quinoxalin-5-yl)-1′H-spiro[cyclopropane-1,6′-pyrrolo[3,4-b]pyrrol]-4′(5′H)-one]	16.1	–	–	–	0.0295	0.0354
Cc1nc2ccc(F)c(-c3cc(C(N)=O)c(C)[nH]3)c2nc1NC1(C)CC1 [Example 417, 5-(6-fluoro-2-methyl-3-((1-methylcyclopropyl)amino)quinoxalin-5-yl)-2-methyl-1H-pyrrole-3-carboxamide]	279	2.91	3.56	–	–	–
Cc1nc2cccc(-c3cc(C(N)=O)c(C4CC4)[nH]3)c2nc1NC(C)(C)C [Example 418, 5-(3-(tert-butylamino)-2-methylquinoxalin-5-yl)-2-cyclopropyl-1H-pyrrole-3-carboxamide]	3150	3.52	7.79	–	–	–
Cc1nc2ccc(F)c(-c3cc4c([nH]3)[C@@H](C)NC4=O)c2nc1NC1CC1 [Example 284, (R)-2-(3-(cyclopropylamino)-6-fluoro-2-methylquinoxalin-5-yl)-6-methyl-5,6-dihydropyrrolo[3,4-b]pyrrol-4(1H)-one]	18.6	0.0282	0.0378	–	–	–
Cc1nc2cccc(-c3cc4c([nH]3)[C@H](C)NC4=O)c2nc1NC1(C)CC1 [Example 328, (6S)-6-methyl-2-(2-methyl-3-((1-methylcyclopropyl)amino)-5-quinoxalinyl)-5,6-dihydropyrrolo[3,4-b]pyrrol-4(1H)-one]	46	0.195	0.201	–	–	–
Cc1nc2cccc(-c3cc4c([nH]3)C(CCO)NC4=O)c2nc1NC(C)(C)C (stereo not drawn) [Example 462, 2-(3-(tert-butylamino)-2-methyl-5-quinoxalinyl)-6-(2-hydroxyethyl)-5,6-dihydropyrrolo[3,4-b]pyrrol-4(1H)-one]	122	0.51	0.47	–	–	–
Cc1nc2cccc(-c3cc4n(n3)CCNC4=O)c2nc1NC(C)(C)C [Example 471, 2-(3-(tert-butylamino)-2-methylquinoxalin-5-yl)-6,7-dihydropyrazolo[1,5-a]pyrazin-4(5H)-one]	15500	164	–	–	–	593
